Several values for one entry are separate records, joined by “and”; a condition that tells them apart may be missing. Equal entries are not always repeated. Toxic doses and inconclusive results are not listed.
Test system: L1210 leukemia ip in BDF1 mice, survival T/C
Assay: NCI In Vivo Anticancer Drug Screen. Data for tumor model L1210 Leukemia (intraperitoneal) in B6D2F1 (BDF1) mice
Settings: endpoint: mean survival time, higher = longer survival
Procedure, shortened: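 Read-out is survival time, reported as the treated-group measurement over the vehicle-control measurement.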

[1] = dose: 100.0 mg/kg/injection, schedule: Q04DX002 (ip), vehicle: Klucel (hydroxypropylcellulose) (HPC)
[2] = dose: 200.0 mg/kg/injection, schedule: Q04DX002 (ip), vehicle: Klucel (hydroxypropylcellulose) (HPC)
[3] = dose: 400.0 mg/kg/injection, schedule: Q04DX002 (ip), vehicle: Klucel (hydroxypropylcellulose) (HPC)
[4] = dose: 100.0 mg/kg/injection, schedule: Q01DX009 (ip), vehicle: Klucel (hydroxypropylcellulose) (HPC)
[5] = dose: 400.0 mg/kg/injection, schedule: Q01DX009 (ip), vehicle: Klucel (hydroxypropylcellulose) (HPC)
[6] = dose: 100.0 mg/kg/injection, schedule: Q04DX003 (ip), vehicle: saline
[7] = dose: 200.0 mg/kg/injection, schedule: Q04DX003 (ip), vehicle: saline
[8] = dose: 50.0 mg/kg/injection, schedule: Q04DX002 (ip), vehicle: Klucel (hydroxypropylcellulose) (HPC)
[9] = dose: 25.0 mg/kg/injection, schedule: Q01DX009 (ip), vehicle: saline
[10] = dose: 25.0 mg/kg/injection, schedule: Q04DX003 (ip), vehicle: saline
[11] = dose: 50.0 mg/kg/injection, schedule: Q01DX009 (ip), vehicle: saline
[12] = dose: 50.0 mg/kg/injection, schedule: Q04DX003 (ip), vehicle: saline
[13] = dose: 100.0 mg/kg/injection, schedule: Q01DX009 (ip), vehicle: saline
[14] = dose: 100.0 mg/kg/injection, schedule: Q01DX001 (ip), vehicle: saline
[15] = dose: 200.0 mg/kg/injection, schedule: Q01DX001 (ip), vehicle: saline

With `CCN(CC)CCCC(C)NC(=O)c1cc(=O)[nH]c(=O)[nH]1` (stereo unspecified) the T/C (dose: 25.0 mg/kg/injection, schedule: Q01DX009 (ip), vehicle: water) was 106 % of control, the T/C (dose: 50.0 mg/kg/injection, schedule: Q01DX009 (ip), vehicle: water) was 96 % of control and the T/C (dose: 100.0 mg/kg/injection, schedule: Q01DX009 (ip), vehicle: water) was 103 % of control and 91 % of control. For the same compound, the T/C (dose: 100.0 mg/kg/injection, schedule: Q04DX003 (ip), vehicle: water) was 104 % of control and the T/C (dose: 200.0 mg/kg/injection, schedule: Q04DX003 (ip), vehicle: water) was 101 % of control.

With `O=N[C@H]1C2CC([C@@H]1Cl)[C@@H]1CC=C[C@H]21` (stereo partly specified) the T/C (dose: 50.0 mg/kg/injection, schedule: Q01DX001 (ip), vehicle: carboxymethylcellulose (CMC)) was 95 % of control, the T/C (dose: 100.0 mg/kg/injection, schedule: Q01DX001 (ip), vehicle: carboxymethylcellulose (CMC)) was 101 % of control and the T/C (dose: 200.0 mg/kg/injection, schedule: Q01DX001 (ip), vehicle: carboxymethylcellulose (CMC)) was 95 % of control.

In the case of `COc1ccc(C(CCCC(=O)O)C(CC(=O)O)C(=O)O)cc1` (stereo unspecified), the T/C (dose: 75.0 mg/kg/injection, schedule: Q04DX003 (ip), vehicle: saline) is reported as 96 % of control, the T/C (dose: 150.0 mg/kg/injection, schedule: Q04DX003 (ip), vehicle: saline) is reported as 103 % of control and the T/C (dose: 300.0 mg/kg/injection, schedule: Q04DX003 (ip), vehicle: saline) is reported as 112 % of control.

`CC1CCCC(C)[N+]1=C(Nc1cccc(Cl)c1)c1ccccc1` (stereo unspecified) was tested, and the T/C [1] was 97 % of control, the T/C [2] was 106 % of control and the T/C [3] was 101 % of control.

For `CCCCN(CCCC)/C(=C/C(=O)OC)C(=O)OC`, the T/C (dose: 100.0 mg/kg/injection, schedule: Q04DX003 (ip), vehicle: Klucel (hydroxypropylcellulose) (HPC)) was 94 % of control, the T/C (dose: 200.0 mg/kg/injection, schedule: Q04DX003 (ip), vehicle: Klucel (hydroxypropylcellulose) (HPC)) was 100 % of control and the T/C (dose: 400.0 mg/kg/injection, schedule: Q04DX003 (ip), vehicle: Klucel (hydroxypropylcellulose) (HPC)) was 94 % of control.

`COc1cc(-c2cc(-c3ccccc3)c3ccccc3n2)cc(OC)c1OC` was tested, and the T/C [4] was 97 % of control, the T/C (dose: 200.0 mg/kg/injection, schedule: Q01DX009 (ip), vehicle: Klucel (hydroxypropylcellulose) (HPC)) was 100 % of control and the T/C [5] was 96 % of control.

`CCCCC(=O)N1C(=O)/C(=C\N(C)C)c2cc(C=O)ccc21` was tested, and the T/C (dose: 100.0 mg/kg/injection, schedule: Q01DX001 (ip), vehicle: Klucel (hydroxypropylcellulose) (HPC)) was 90 % of control, the T/C (dose: 200.0 mg/kg/injection, schedule: Q01DX001 (ip), vehicle: Klucel (hydroxypropylcellulose) (HPC)) was 90 % of control and the T/C (dose: 400.0 mg/kg/injection, schedule: Q01DX001 (ip), vehicle: Klucel (hydroxypropylcellulose) (HPC)) was 93 % of control.

`C=CCN=C(N)C(N)=NCC=C` was tested, and the T/C [6] was 96 % of control, the T/C [7] was 101 % of control and the T/C (dose: 400.0 mg/kg/injection, schedule: Q04DX003 (ip), vehicle: saline) was 103 % of control.

`C=CCc1ccc(OCCOCCN(C/C=C(\C)CCC=C(C)C)C/C=C(\C)CCC=C(C)C)c(OC)c1` was tested, and the T/C (dose: 25.0 mg/kg/injection, schedule: Q04DX002 (ip), vehicle: Klucel (hydroxypropylcellulose) (HPC)) was 108 % of control, the T/C [8] was 96 % of control and the T/C [1] was 99 % of control.

`O=C(OCc1ccccc1CN1CCOCC1)c1ccccc1` was tested, and the T/C [1] was 98 % of control, the T/C [2] was 105 % of control and the T/C [3] was 96 % of control.

In the case of `CC1CCCCN1CCCO` (stereo unspecified), the T/C [9] is reported as 87 % of control, the T/C [10] is reported as 103 % of control and the T/C [11] is reported as 91 % of control. The T/C [12] was 112 % of control, the T/C [13] was 89 % of control and the T/C [6] was 92 % of control and 95 % of control.

For `CN(C)C(=O)c1ccc[n+](CC(=O)Nc2ccc(Cl)cc2)c1`, the T/C [6] was 98 % of control.

With `CCOC(=O)N1CCC2(CC1)CC(=O)N(N1CCCCCC1)C2=O` the T/C [1] was 93 % of control and the T/C [2] was 93 % of control.

In the case of `c1ccc(-c2oc(-c3ccccc3)c(-c3ccccc3)c2-c2ccccc2)cc1`, the T/C (dose: 100.0 mg/kg/injection, schedule: Q04DX003 (ip), vehicle: saline with Tween-80) is reported as 93 % of control and the T/C (dose: 400.0 mg/kg/injection, schedule: Q04DX003 (ip), vehicle: saline with Tween-80) is reported as 93 % of control.

With `S=P(N1CCCCCC1)(N1CC1)N1CC1` the T/C (dose: 25.0 mg/kg/injection, schedule: Q01DX Z (ip), vehicle: saline) was 110 % of control and 116 % of control, the T/C (dose: 50.0 mg/kg/injection, schedule: Q01DX001 (ip), vehicle: saline) was 108 % of control and the T/C (dose: 50.0 mg/kg/injection, schedule: Q01DX006 (iv), vehicle: saline) was 104 % of control. The T/C (dose: 50.0 mg/kg/injection, schedule: Q01DX Z (ip), vehicle: saline) was 96 % of control, the T/C (dose: 50.0 mg/kg/injection, schedule: Q01DX Z (oral), vehicle: saline) was 122 % of control and the T/C [14] was 113 % of control. The T/C (dose: 100.0 mg/kg/injection, schedule: Q01DX006 (iv), vehicle: saline) was 105 % of control, the T/C (dose: 100.0 mg/kg/injection, schedule: Q01DX Z (ip), vehicle: saline) was 170 % of control and the T/C (dose: 100.0 mg/kg/injection, schedule: Q01DX Z (oral), vehicle: saline) was 158 % of control. The T/C [15] was 105 % of control, the T/C (dose: 200.0 mg/kg/injection, schedule: Q01DX006 (iv), vehicle: saline) was 104 % of control and the T/C (dose: 250.0 mg/kg/injection, schedule: Q01DX001 (ip), vehicle: saline) was 112 % of control. For the same compound, the T/C (dose: 500.0 mg/kg/injection, schedule: Q01DX001 (ip), vehicle: saline) was 104 % of control.

With `Clc1ccc(C(c2ccccc2Cl)C(Cl)Cl)cc1` (stereo unspecified) the T/C (dose: 62.5 mg/kg/injection, schedule: Q01DX009 (sc), vehicle: steriod suspending solution) was 98 % of control and 101 % of control, the T/C (dose: 62.5 mg/kg/injection, schedule: Q01DX010 (sc), vehicle: saline) was 91 % of control and the T/C (dose: 62.5 mg/kg/injection, schedule: Q01DX010 (sc), vehicle: steriod suspending solution) was 102 % of control. For the same compound, the T/C (dose: 125.0 mg/kg/injection, schedule: Q01DX009 (sc), vehicle: steriod suspending solution) was 98 % of control and 103 % of control, the T/C (dose: 125.0 mg/kg/injection, schedule: Q01DX010 (sc), vehicle: saline) was 102 % of control and the T/C (dose: 125.0 mg/kg/injection, schedule: Q01DX010 (sc), vehicle: steriod suspending solution) was 98 % of control. For the same compound, the T/C (dose: 250.0 mg/kg/injection, schedule: Q01DX009 (sc), vehicle: steriod suspending solution) was 97 % of control and 100 % of control, the T/C (dose: 250.0 mg/kg/injection, schedule: Q01DX010 (sc), vehicle: saline) was 91 % of control and the T/C (dose: 250.0 mg/kg/injection, schedule: Q01DX010 (sc), vehicle: steriod suspending solution) was 102 % of control. For the same compound, the T/C (dose: 500.0 mg/kg/injection, schedule: Q01DX009 (sc), vehicle: steriod suspending solution) was 97 % of control and 101 % of control, the T/C (dose: 500.0 mg/kg/injection, schedule: Q01DX010 (sc), vehicle: saline) was 94 % of control and the T/C (dose: 500.0 mg/kg/injection, schedule: Q01DX010 (sc), vehicle: steriod suspending solution) was 98 % of control.

`O=C(CCCc1ccc(N(CCCl)CCCl)cc1)Nc1ccccc1` was tested, and the T/C (dose: 4.0 mg/kg/injection, schedule: Q12HX018 (ip), vehicle: Klucel (hydroxypropylcellulose) (HPC)) was 102 % of control, the T/C (dose: 4.0 mg/kg/injection, schedule: Q12HX018 (ip), vehicle: other) was 103 % of control and the T/C (dose: 6.0 mg/kg/injection, schedule: Q12HX018 (ip), vehicle: other) was 101 % of control. The T/C (dose: 8.0 mg/kg/injection, schedule: Q12HX018 (ip), vehicle: Klucel (hydroxypropylcellulose) (HPC)) was 109 % of control, the T/C (dose: 8.0 mg/kg/injection, schedule: Q12HX018 (ip), vehicle: other) was 103 % of control and the T/C (dose: 16.0 mg/kg/injection, schedule: Q12HX018 (ip), vehicle: Klucel (hydroxypropylcellulose) (HPC)) was 104 % of control.

In the case of `COc1ccc(CCC2(C=O)CNCN2)cc1` (stereo unspecified), the T/C (dose: 100.0 mg/kg/injection, schedule: Q01DX001 (ip), vehicle: other) is reported as 98 % of control and the T/C (dose: 200.0 mg/kg/injection, schedule: Q01DX001 (ip), vehicle: other) is reported as 93 % of control.

With `CC1C2CCC(C2)C1N` (stereo unspecified) the T/C [9] was 96 % of control, the T/C [10] was 94 % of control and the T/C [11] was 104 % of control. The T/C [12] was 105 % of control, the T/C [13] was 98 % of control and the T/C [6] was 112 % of control and 92 % of control and 93 % of control. For the same compound, the T/C [7] was 93 % of control.

For `CCOC(=O)CCC(=O)OCC`, the T/C [14] was 95 % of control, the T/C [15] was 95 % of control and the T/C (dose: 400.0 mg/kg/injection, schedule: Q01DX001 (ip), vehicle: saline) was 93 % of control.

With `O=C(NC(C(=O)c1ccccc1)c1ccccc1)c1ccccc1` (stereo unspecified) the T/C [8] was 98 % of control, the T/C [4] was 86 % of control and the T/C [1] was 92 % of control. For the same compound, the T/C [2] was 106 % of control and the T/C [5] was 101 % of control.
